The source of these data is ChEMBL document CHEMBL4706547, “Discovery and structure-activity relationship studies of 1-aryl-1H-naphtho[2,3-d][1,2,3]triazole-4,9-dione derivatives as potent dual inhibitors of indoleamine 2,3-dioxygenase 1 (IDO1) and trytophan 2,3-dioxygenase (TDO)” (Eur J Med Chem, 2020).

By IC50 is commonly meant the point on the concentration scale where inhibition reaches its midpoint. By solubility is commonly meant the dissolved amount per volume that the medium holds. Low readings indicate little dissolved substance, high ones much dissolved substance.

Converted amounts (≈) assume the structure as drawn. The source made the active and inactive calls. The rule behind the calls is not given here.

T2 sequence (P14902 whole entry): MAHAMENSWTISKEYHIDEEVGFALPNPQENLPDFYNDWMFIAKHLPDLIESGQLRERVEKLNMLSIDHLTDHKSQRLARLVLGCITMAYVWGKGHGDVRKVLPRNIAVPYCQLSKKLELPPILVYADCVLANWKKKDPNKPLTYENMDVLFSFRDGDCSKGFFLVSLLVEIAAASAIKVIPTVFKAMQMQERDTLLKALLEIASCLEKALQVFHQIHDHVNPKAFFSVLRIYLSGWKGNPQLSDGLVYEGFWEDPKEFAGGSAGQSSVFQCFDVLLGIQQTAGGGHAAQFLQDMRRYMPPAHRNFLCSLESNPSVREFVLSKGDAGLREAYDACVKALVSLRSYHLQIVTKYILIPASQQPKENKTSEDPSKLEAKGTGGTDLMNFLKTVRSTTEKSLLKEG

Test system in one data set: not listed separately
Description: Antitumor activity against […] cells allografted in C57BL/6 mouse assessed as tumor growth inhibition at 30 mg/kg, ip administered for 11 days and measured upto 20 days relative to control. The class given is functional. Conditions: Hepa1-6, ip, time day <=20, read-out: TGI.
Take `O=C1c2cc(F)ccc2C(=O)c2c1nnn2-c1ccc(F)c(Cl)c1`: the inhibition in vivo at 30 mg/kg was determined as 80%.

Turning to `NS(=O)(=O)NCCNc1nonc1/C(=N/O)Nc1ccc(F)c(Br)c1` [EPACADOSTAT], the inhibition in vivo at 30 mg/kg is 50%.

Test system in the next data set: not listed separately
Description: Redox activity of compound assessed as increase in H2O2 production incubated for 15 mins by HRP-PR staining based fluorometric analysis. The class given is physicochemical. Conditions: 0.25 h.
`O=C1c2cc(F)ccc2C(=O)c2c1nnn2-c1ccc(F)c(Cl)c1`: the Activity result is “Not Active”.

Another data set relates to LL2. Conditions: dose 30.0 mg/kg, time day <=20.
Consider `NS(=O)(=O)NCCNc1nonc1/C(=N/O)Nc1ccc(F)c(Br)c1` [EPACADOSTAT], for which the TGI result was “Active”.

For another data set, the target named is T1, Tryptophan 2,3-dioxygenase (Homo sapiens, UniProt P48775). Put plainly: Inhibition of TDO in human A 172 cells assessed as reduction in L-kynurenine formation using L-tryptophan as substrate incubated for 24 hrs. Type of data set: cell-based.
T1 sequence (P48775 whole entry): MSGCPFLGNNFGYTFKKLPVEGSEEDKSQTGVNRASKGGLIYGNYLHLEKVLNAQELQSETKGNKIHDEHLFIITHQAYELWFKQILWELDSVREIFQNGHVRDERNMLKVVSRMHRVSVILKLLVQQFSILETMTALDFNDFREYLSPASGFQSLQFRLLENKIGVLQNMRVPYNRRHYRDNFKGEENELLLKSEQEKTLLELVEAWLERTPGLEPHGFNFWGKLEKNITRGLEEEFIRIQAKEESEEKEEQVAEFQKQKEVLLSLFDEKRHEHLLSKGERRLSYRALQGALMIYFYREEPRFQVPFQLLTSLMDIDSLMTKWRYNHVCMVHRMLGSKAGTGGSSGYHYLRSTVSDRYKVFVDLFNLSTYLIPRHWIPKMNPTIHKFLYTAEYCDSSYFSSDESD
Settings: not given
`O=C1c2cc(F)ccc2C(=O)c2c1nnn2-c1ccc(F)c(Cl)c1`: the IC50 is 59 nM.

A further data set addresses T2, Indoleamine 2,3-dioxygenase 1 (Homo sapiens, UniProt P14902). Description: Inhibition of IDO1 in IFN-gamma-induced human HeLa cells assessed as reduction in L-kynurenine formation using L-tryptophan as substrate incubated for 24 hrs.
Settings: not given
With `O=C1c2cc(F)ccc2C(=O)c2c1nnn2-c1ccc(F)c(Cl)c1`, the 50% inhibitory concentration (IC50) amounted to 98 nM.

Test system in another data set: not listed separately
Description: Antitumor activity against […] cells allografted in C57BL/6 mouse assessed as tumor growth inhibition at 30 mg/kg, ip administered for 11 days and measured upto 20 days relative to control. Type of data set: functional. Particulars: LL/2, ip, time day <=20, read-out: TGI.
Take `O=C1c2cc(F)ccc2C(=O)c2c1nnn2-c1ccc(F)c(Cl)c1`: the inhibition in vivo at 30 mg/kg amounted to 62.5%.

Test system in another data set: not listed separately
Put plainly: Toxicity in C57BL/6 mouse […] with […] cells assessed as effect on body weight at 30 mg/kg, ip administered for 11 days and measured upto 20 days. Type of data set: organism-based. Conditions: in vivo, time <=20 day. Background: In xenograft studies the graft and the host belong to different species.
Turning to `O=C1c2cc(F)ccc2C(=O)c2c1nnn2-c1ccc(F)c(Cl)c1`, the Activity result is “Non-Toxic”.

The target of another data set is T1, Tryptophan 2,3-dioxygenase. Put plainly: Inhibition of TDO (unknown origin) assessed as reduction in L-kynurenine formation using L-tryptophan as substrate incubated for 30 mins microplate spectrophotometry analysis.
Settings: not given
In the case of `O=C1c2ccccc2C(=O)c2c1nnn2-c1ccc(-c2nnn[nH]2)cc1`, the IC50 came to 25 nM.

Turning to `O=C1c2ccccc2C(=O)c2c1nnn2-c1ccc2[nH]cnc2c1`, the half-maximal inhibitory concentration (IC50) amounted to 104 nM.

In the case of `O=C1c2cc(F)ccc2C(=O)c2c1nnn2-c1ccc(F)c(Cl)c1`, the IC50 is 4 nM.

With `O=C1c2ccccc2C(=O)c2c1nnn2-c1ccc(C(F)(F)F)c(Cl)c1`, the IC50 was found to be 25 nM.

Regarding `O=C1c2ccccc2C(=O)c2c1nnn2-c1cccc([N+](=O)[O-])c1`, the half-inhibitory concentration (IC50) was found to be 28 nM.

With `COC(=O)c1ccc(-n2nnc3c2C(=O)c2ccccc2C3=O)cc1`, the IC50 is 58 nM.

With `O=C1c2ccccc2C(=O)c2c1nnn2-c1ccc(Cl)nc1`, the IC50 was found to be 25 nM.

In the case of `COc1ccc2c(c1)C(=O)c1c(nnn1-c1ccc(F)c(Cl)c1)C2=O`, the IC50 is > 10000 nM.

Consider `O=C1c2ccccc2C(=O)c2c1nnn2-c1cccc(F)c1`, for which the IC50 worked out at 101 nM.

In the case of `COc1ccc2c(c1)C(=O)c1nnn(-c3ccc(F)c(Cl)c3)c1C2=O`, the IC50 worked out at 105 nM.

Consider `O=C1c2ccccc2C(=O)c2c1nnn2-c1ccc2[nH]ncc2c1`, for which the IC50 was found to be 42 nM.

On to `O=C1c2ccccc2C(=O)c2c1nnn2-c1ccc(Cl)c([N+](=O)[O-])c1`, for which the concentration for half-maximal inhibition (IC50) turned out to be 15 nM.

With `Cc1cccc(-n2nnc3c2C(=O)c2ccccc2C3=O)c1`, the IC50 is 64 nM.

Turning to `CC(=O)Nc1cccc(-n2nnc3c2C(=O)c2ccccc2C3=O)c1`, the IC50 worked out at 132 nM.

Consider `O=C1c2ccccc2C(=O)c2c1nnn2-c1cccnc1`, for which the IC50 is 21 nM.

As to `N#Cc1ccc(-n2nnc3c2C(=O)c2ccccc2C3=O)cc1`, the concentration for half-maximal inhibition (IC50) was found to be 66 nM.

`CN1CCN(c2ccc(-n3nnc4c3C(=O)c3ccccc3C4=O)cc2)CC1`: the IC50 is > 10000 nM.

In the case of `O=C1c2cc(O)ccc2C(=O)c2c1nnn2-c1ccc(F)c(Cl)c1`, the IC50 stood at 171 nM.

In the case of `O=C(O)c1cccc(-n2nnc3c2C(=O)c2ccccc2C3=O)c1`, the IC50 amounted to 71 nM.

As for `O=C1c2ccc(F)cc2C(=O)c2c1nnn2-c1ccc(F)c(Cl)c1`, the IC50 turned out to be 10 nM.

As to `O=C1c2ccccc2C(=O)c2c1nnn2-c1ccc2ccncc2c1`, the IC50 worked out at 34 nM.

Turning to `O=C1c2ccccc2C(=O)c2c1nnn2-c1ccc(Cl)cc1`, the half-maximal inhibitory concentration (IC50) stood at 15 nM.

`O=C1c2ccccc2C(=O)c2c1nnn2-c1cccc(Cl)c1`: the IC50 turned out to be 36 nM.

As for `O=C1c2ccc(O)cc2C(=O)c2c1nnn2-c1ccc(F)c(Cl)c1`, the IC50 amounted to 384 nM.

Consider `O=C1c2ccccc2C(=O)c2c1nnn2-c1ccc(F)c(Cl)c1`, for which the IC50 is 14 nM.

With `O=C1c2ccccc2C(=O)c2c1nnn2-c1ccc(Cl)c(Cl)c1`, the IC50 worked out at 18 nM.

Consider `O=C1c2ccccc2C(=O)c2c1nnn2-c1cc(Cl)c(F)c(Cl)c1`, for which the half-maximal inhibitory concentration (IC50) was determined as 34 nM.

In the case of `O=C1c2ccccc2C(=O)c2c1nnn2-c1ccc(Cl)c(F)c1`, the IC50 was found to be 18 nM.

Regarding `O=C1c2ccccc2C(=O)c2c1nnn2Cc1ccccc1`, the IC50 stood at 858 nM.

As for `O=C1c2ccccc2C(=O)c2c1nnn2-c1cnc(Cl)c(Cl)c1`, the 50% inhibitory concentration (IC50) turned out to be 248 nM.

For `NS(=O)(=O)NCCNc1nonc1C(=NO)Nc1ccc(F)c(Br)c1` [EPACADOSTAT], the IC50 was > 10000 nM.

For the compound `O=C1c2ccccc2C(=O)c2c1nnn2-c1ccccc1Cl`, the concentration for half-maximal inhibition (IC50) is > 10000 nM.

On to `O=C1c2ccccc2C(=O)c2c1nnn2-c1ccc([N+](=O)[O-])cc1`, for which the IC50 was 48 nM.

`NS(=O)(=O)c1ccc(-n2nnc3c2C(=O)c2ccccc2C3=O)cc1`: the IC50 is 48 nM.

As to `O=C1c2ccccc2C(=O)c2c1nnn2-c1ccccc1`, the IC50 was 70 nM.

Turning to `O=C1c2ccccc2C(=O)c2c1nnn2-c1ccc(F)cc1`, the IC50 was determined as 49 nM.

Test system in a further data set: not listed separately
Put plainly: Solubility of compound.
Settings: not given
Type of data set: physicochemical.
`O=C1c2cc(F)ccc2C(=O)c2c1nnn2-c1ccc(F)c(Cl)c1`: the solubility was 0.16 µM (≈ 0.0553 µg/mL).

Test system in a further data set: not listed separately
Description: Redox activity of compound assessed as increase in H2O2 production at > 50 uM incubated for 15 mins by HRP-PR staining based fluorometric analysis relative to control. Conditions: 0.25 h. Type of data set: physicochemical.
As for `O=C1c2cc(F)ccc2C(=O)c2c1nnn2-c1ccc(F)c(Cl)c1`, the Activity entry is recorded as “Not Active”.

The target in a further data set is T2, Indoleamine 2,3-dioxygenase 1.
Settings: not given
In turn, `O=C1c2ccccc2C(=O)c2c1nnn2-c1ccc(-c2nnn[nH]2)cc1` showed an IC50 of 60 nM.

In turn, `O=C1c2ccccc2C(=O)c2c1nnn2-c1ccc2[nH]cnc2c1` gave an IC50 of 78 nM.

For the compound `O=C1c2cc(F)ccc2C(=O)c2c1nnn2-c1ccc(F)c(Cl)c1`, it took 5 nM to reach half-maximal inhibition (IC50).

For `O=C1c2ccccc2C(=O)c2c1nnn2-c1ccc(C(F)(F)F)c(Cl)c1`, the IC50 stood at 30 nM.

On to `O=C1c2ccccc2C(=O)c2c1nnn2-c1cccc([N+](=O)[O-])c1`, for which the IC50 is 29 nM.

As to `COC(=O)c1ccc(-n2nnc3c2C(=O)c2ccccc2C3=O)cc1`, it took 34 nM to reach half-maximal inhibition (IC50).

Compound `O=C1c2ccccc2C(=O)c2c1nnn2-c1ccc(Cl)nc1` came in with an IC50 of 27 nM.

For the compound `COc1ccc2c(c1)C(=O)c1c(nnn1-c1ccc(F)c(Cl)c1)C2=O`, the IC50 was > 10000 nM.

As to `O=C1c2ccccc2C(=O)c2c1nnn2-c1cccc(F)c1`, 52 nM corresponded to half-maximal inhibition (IC50).

`COc1ccc2c(c1)C(=O)c1nnn(-c3ccc(F)c(Cl)c3)c1C2=O` showed an IC50 of 163 nM.

Regarding `O=C1c2ccccc2C(=O)c2c1nnn2-c1ccc2[nH]ncc2c1`, half-maximal inhibition (IC50) was put at 45 nM.

Regarding `O=C1c2ccccc2C(=O)c2c1nnn2-c1ccc(Cl)c([N+](=O)[O-])c1`, 15 nM corresponded to half-maximal inhibition (IC50).

`CN1CCN(C(=O)c2cccc(Cn3nnc4c3C(=O)c3ccccc3C4=O)c2)CC1` showed an IC50 of 658 nM.

In turn, `Cc1cccc(-n2nnc3c2C(=O)c2ccccc2C3=O)c1` registered an IC50 of 122 nM.

Take `CC(=O)Nc1cccc(-n2nnc3c2C(=O)c2ccccc2C3=O)c1`: inhibition was half-maximal at 81 nM (IC50).

Turning to `O=C1c2ccccc2C(=O)c2c1nnn2-c1cccnc1`, the IC50 was 23 nM.

As to `N#Cc1ccc(-n2nnc3c2C(=O)c2ccccc2C3=O)cc1`, the IC50 came to 26 nM.

`CN1CCN(c2ccc(-n3nnc4c3C(=O)c3ccccc3C4=O)cc2)CC1`: the IC50 is > 10000 nM.

The compound `O=C1c2cc(O)ccc2C(=O)c2c1nnn2-c1ccc(F)c(Cl)c1` yielded an IC50 of 144 nM.

`O=C(O)c1cccc(-n2nnc3c2C(=O)c2ccccc2C3=O)c1` registered an IC50 of 114 nM.

The compound `O=C1c2ccc(F)cc2C(=O)c2c1nnn2-c1ccc(F)c(Cl)c1` returned an IC50 of 10 nM.

For the compound `O=C1c2ccccc2C(=O)c2c1nnn2-c1ccc2ccncc2c1`, the IC50 came out at 40 nM.

The compound `O=C1c2ccccc2C(=O)c2c1nnn2-c1ccc(Cl)cc1` gave an IC50 of 23 nM.

`O=C1c2ccccc2C(=O)c2c1nnn2-c1cccc(Cl)c1` displayed an IC50 of 40 nM.

In the case of `O=C1c2ccc(O)cc2C(=O)c2c1nnn2-c1ccc(F)c(Cl)c1`, the IC50 came to 355 nM.

`O=C1c2ccccc2C(=O)c2c1nnn2-c1ccc(F)c(Cl)c1` registered an IC50 of 13 nM.

For `O=C1c2ccccc2C(=O)c2c1nnn2-c1ccc(Cl)c(Cl)c1`, the midpoint of inhibition, the IC50, lay at 23 nM.

Regarding `O=C1c2ccccc2C(=O)c2c1nnn2-c1cc(Cl)c(F)c(Cl)c1`, the midpoint of inhibition, the IC50, lay at 33 nM.

On to `O=C1c2ccccc2C(=O)c2c1nnn2-c1ccc(Cl)c(F)c1`, for which half-maximal inhibition (IC50) required 20 nM.

In turn, `O=C1c2ccccc2C(=O)c2c1nnn2Cc1ccccc1` displayed a 50% inhibitory concentration (IC50) of 886 nM.

In turn, `O=C1c2ccccc2C(=O)c2c1nnn2-c1cnc(Cl)c(Cl)c1` displayed an IC50 of 113 nM.

Consider `O=C1c2ccccc2C(=O)c2c1nnn2-c1ccccc1Cl`, for which the IC50 is > 10000 nM.

With `O=C1c2ccccc2C(=O)c2c1nnn2-c1ccc([N+](=O)[O-])cc1`, the IC50 came to 33 nM.

Compound `NS(=O)(=O)c1ccc(-n2nnc3c2C(=O)c2ccccc2C3=O)cc1` had an IC50 of 30 nM.

As to `O=C1c2ccccc2C(=O)c2c1nnn2-c1ccccc1`, the IC50 was determined as 100 nM.

As for `O=C1c2ccccc2C(=O)c2c1nnn2-c1ccc(F)cc1`, half-maximal inhibition (IC50) was put at 58 nM.

Test system in another data set: not listed separately
Description: Toxicity in C57BL/6 mouse […] with […] cells assessed as effect on body weight at 30 mg/kg, ip administered for 11 days and measured upto 20 days. The class given is organism-based. Conditions: in vivo, time <=20 day.
For `O=C1c2cc(F)ccc2C(=O)c2c1nnn2-c1ccc(F)c(Cl)c1`, the Activity result is “Non-Toxic”.
